Source: patent US11261184B2, “[1,6]naphthyridine compounds and derivatives as CDK8/CDK19 inhibitors” (Boehringer Ingelheim International GmbH, priority 2017, dated 2022)

What was measured:
[1] = biological target: CDK8/cyclin C (Homo sapiens (Human), UniProt P49336); test: CDK8 biochemical assay (TR-FRET Kinase Tracer 236 displacement); format: binding; details: 5 nM CDK8/cyclin C, 10 nM Kinase Tracer 236, 60 min
Method: This assay is used to identify compounds which competitively interact with the binding pocket of the CDK8 kinase.
Assay-ready plates (ARPs; Proxiplate-384 PLUS, white, PerkinElmer) with compound solution in 100% DMSO are generated on an Access Labcyte Workstation with the Labcyte Echo 55x. 150 nL of compound solution are transferred per well in 11 concentrations in duplicates with serial 1:5 dilutions. The final DMSO concentration in the assay is 1%.
5 nM (final assay concentration) CDK8/cyclin C, 2 nM (final assay concentration) Biotin anti-His Tag Antibody and 2 nM (final assay concentration) LanthaScreen Eu-Streptavidin are mixed in assay buffer (50 mM HEPES pH 7.3, 10 mM MgCl2, 1 mM EGTA, 0.01% Brij-35, 0.05% BSA, 1 mM DTT) prior to use and kept at room temperature.
The assay runs on a fully automated robotic system. 10 μL of CDK8/cyclin C, Biotin anti-His Tag Antibody and LanthaScreen Eu-Streptavidin mix are dispensed into columns 1-24. 5 μL of 10 nM (final assay concentration) Kinase Tracer 236 solution in assay buffer are added to columns 1-23, 5 μL of assay buffer into column 24. Plates are kept at room temperature in a darkened incubator. After 60 min incubation time the signal is measured in a PerkinElmer Envision HTS Multilabel Reader using the TR-FRET specs from PerkinElmer.
Each plate contains 16 wells of a negative control (diluted DMSO instead of test compound; CDK8/cyclin C, Biotin anti-His Tag Antibody and LanthaScreen Eu-Streptavidin mix w Kinase Tracer 236; column 23) and 16 wells of a positive control (diluted DMSO instead of test compound; CDK8/cyclin C, Biotin anti-His Tag Antibody and LanthaScreen Eu-Streptavidin mix w/o Kinase Tracer 236; column 24). A known inhibitor of CDK8/cyclin C binding is used as internal control. IC50 values are calculated and analyzed in the MEGALAB IC50 application using a 4 parametric logistic model.
Table 4 includes IC50 values of example compounds determined using the above assay.

[2] = Metabolic (microsomal) stability assay, rat liver microsomes; format: in vitro ADME; details: predicted clearance as percent of liver blood flow; rat liver microsomes 0.5 mg/mL, 1 μM compound, 37° C.
Method: (§1) Metabolic (Microsomal) Stability Assay
(§2) The metabolic degradation of the test compound is assayed at 37° C. with pooled liver microsomes (mouse (MLM), rat (RLM) or human (HLM)). The final incubation volume of 74 μL per time point contains TRIS buffer (pH 7.5; 0.1 M), magnesium chloride (6.5 mM), microsomal protein (0.5 mg/mL for mouse/rat, 1 mg/mL for human specimens) and the test compound at a final concentration of 1 μM. Following a short preincubation period at 37° C., the reactions are initiated by addition of 8 μL beta-nicotinamide adenine dinucleotide phosphate, reduced form (NADPH, 10 mM) and terminated by transferring an aliquot into solvent after different time points. Additionally, the NADPH-independent degradation is monitored in incubations without NADPH, terminated at the last time point by addition of acetonitril. The quenched incubations are pelleted by centrifugation (1811 g, 5 min). An aliquot of the supernatant is assayed by LC-MS/MS for the amount of parent compound.
(§3) In vitro intrinsic clearance (CLint,in vitro) is calculated from the time course of the disappearance of the test drug during the microsomal incubation. Each plot is fitted to the first-order elimination rate constant as C(t)=C0*exp(−ke*t), where C(t) and C0 are the concentration of unchanged test drug at incubation time t and that at preincubation and ke is the disappearance rate constant of the unchanged drug. Subsequently, CLint,in vitro (μL·min^−1·amount protein) values are converted to CLint,in vitro (mL·min^−1·kg^−1) for the whole body. CLint,in vitro data are scaled up using physiological parameters. For better across species comparison the predicted clearance is expressed as percent of the liver blood flow [% QH] in the individual species. In general high stability (corresponding to low % QH) of the compounds across species is desired.

[3] = Metabolic (microsomal) stability assay, mouse liver microsomes; format: in vitro ADME; details: predicted clearance as percent of liver blood flow; mouse liver microsomes 0.5 mg/mL, 1 μM compound, 37° C.
Method: as §1, §2, §3

[4] = Metabolic (microsomal) stability assay, human liver microsomes; format: in vitro ADME; details: predicted clearance as percent of liver blood flow; human liver microsomes 1 mg/mL, 1 μM compound, 37° C.
Method: as §1, §2, §3

Chain of CDK8/cyclin C (P49336 whole entry): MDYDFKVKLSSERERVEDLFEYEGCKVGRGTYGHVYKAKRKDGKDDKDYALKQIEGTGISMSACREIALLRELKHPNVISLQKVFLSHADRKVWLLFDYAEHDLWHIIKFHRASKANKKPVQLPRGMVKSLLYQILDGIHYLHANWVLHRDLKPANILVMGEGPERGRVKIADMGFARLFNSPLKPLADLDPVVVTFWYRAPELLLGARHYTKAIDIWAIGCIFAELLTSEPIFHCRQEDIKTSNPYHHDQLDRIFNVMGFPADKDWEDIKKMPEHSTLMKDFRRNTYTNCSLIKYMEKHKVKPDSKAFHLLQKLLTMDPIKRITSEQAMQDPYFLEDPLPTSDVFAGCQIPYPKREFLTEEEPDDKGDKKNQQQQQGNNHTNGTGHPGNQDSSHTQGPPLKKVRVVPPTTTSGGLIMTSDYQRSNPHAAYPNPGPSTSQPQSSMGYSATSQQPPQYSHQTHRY
Chain of CDK8/cyclin C (P24863 whole entry partner): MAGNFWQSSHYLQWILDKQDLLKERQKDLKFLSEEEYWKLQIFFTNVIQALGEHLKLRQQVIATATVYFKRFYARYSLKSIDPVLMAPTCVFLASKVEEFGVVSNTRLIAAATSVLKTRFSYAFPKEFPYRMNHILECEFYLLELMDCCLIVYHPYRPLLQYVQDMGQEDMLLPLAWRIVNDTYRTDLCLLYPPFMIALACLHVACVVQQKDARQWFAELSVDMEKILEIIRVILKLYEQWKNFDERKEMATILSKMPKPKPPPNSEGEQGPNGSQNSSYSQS

Compound | IC50 [1] [nM] | RLM [% QH] [2] [% QH] | MLM [% QH] [3] [% QH] | HLM [% QH] [4] [% QH]
c1cc2nccc(Oc3ccc(N4CCCC4)cc3)c2cn1 [I-001] | 3.6 |  |  | 
Fc1cncc2c(Oc3ccc(N4CCCC4)cc3)ccnc12 [I-002] | 3.4 |  |  | 
Clc1cncc2c(Oc3ccc(N4CCCC4)cc3)ccnc12 [I-003] | 2.4 |  |  | 
Cc1cncc2c(Oc3ccc(N4CCCC4)cc3)ccnc12 [I-004] | 3.7 |  |  | 
Cc1nccc2nccc(Oc3ccc(N4CCCC4)cc3)c12 [I-005] | 11.2 |  |  | 
CN(C)C(=O)[C@H]1CCN(c2ccc(Oc3ccnc4ccncc34)cc2)C1 [I-006] | 1.6 |  |  | 
CN(C)C(=O)[C@H]1CCN(c2ccc(Oc3ccnc4c(Cl)cncc34)cc2)C1 [I-007] | 1.3 | 66 | 49 | <24
CN(CCO)C(=O)[C@H]1CCN(c2ccc(Oc3ccnc4c(Cl)cncc34)cc2)C1 [I-010] | 1.3 |  | 57 | 50
COCCN(C)C(=O)[C@H]1CCN(c2ccc(Oc3ccnc4c(Cl)cncc34)cc2)C1 [I-011] | 1.5 |  |  | 
CN1CCN(C(=O)[C@H]2CCN(c3ccc(Oc4ccnc5c(Cl)cncc45)cc3)C2)CC1 [I-012] | 1.3 |  |  | 
O=C([C@H]1CCN(c2ccc(Oc3ccnc4c(Cl)cncc34)cc2)C1)N1CCOCC1 [I-013] | 1.2 |  | 59 | 44
Cc1cncc2c(Oc3ccc(N4CC[C@H](C(=O)N(C)C)C4)cc3)ccnc12 [I-014] | 1.7 |  |  | 
CN(C)C(=O)[C@H]1CCN(c2ccc(Oc3ccnc4c(F)cncc34)cc2)C1 [I-015] | 1.5 | 43 | <24 | <24
CN1CCN(C(=O)[C@H]2CCN(c3ccc(Oc4ccnc5c(F)cncc45)cc3)C2)CC1 [I-016] | 1.2 |  |  | 
CN(CCO)C(=O)[C@H]1CCN(c2ccc(Oc3ccnc4c(F)cncc34)cc2)C1 [I-017, (S)-1-[4-(8-fluoro-[1,6]naphthyridin-4-yloxy)-phenyl]-pyrrolidine-3-carboxylic acid (2-hydroxy-ethyl)-methyl-amide] | 1.8 | 24 | <24 | <24
CN(C)C(=O)[C@@H]1CCN(c2ccc(Oc3ccnc4c(Cl)cncc34)cc2)C1 [I-018] | 1.2 | 55 | 44 | 30
CN(C)C(=O)[C@@H]1CCN(c2ccc(Oc3ccnc4c(F)cncc34)cc2)C1 [I-019] | 1.7 | 41 | 28 | <24
CN(CCO)C(=O)[C@@H]1CCN(c2ccc(Oc3ccnc4c(F)cncc34)cc2)C1 [I-020] | 1.4 | <24 | <24 | <24
CN1CCN(C(=O)[C@@H]2CCN(c3ccc(Oc4ccnc5c(F)cncc45)cc3)C2)CC1 [I-021] | < 1 |  |  | 

Compound | IC50 [1] [nM] | RLM [% QH] [2] [% QH] | MLM [% QH] [3] [% QH] | HLM [% QH] [4] [% QH]
N[C@H]1CCN(c2ccc(Oc3ccnc4c(F)cncc34)cc2)C1 [I-022] | 8.3 | <24 | <24 | <24
CC(=O)N[C@H]1CCN(c2ccc(Oc3ccnc4c(F)cncc34)cc2)C1 [I-023] | 2.1 | <24 | <24 | <24
CC(=O)N(C)[C@H]1CCN(c2ccc(Oc3ccnc4c(F)cncc34)cc2)C1 [I-024] | 1.4 | <24 | <24 | <24
O=C1CCCN1[C@H]1CCN(c2ccc(Oc3ccnc4c(F)cncc34)cc2)C1 [I-025] | 1.6 |  |  | 
CC(=O)N[C@@H]1CCN(c2ccc(Oc3ccnc4c(F)cncc34)cc2)C1 [I-026] | 2.9 | 25 | <24 | <24
CC(=O)N1CCN(c2ccc(Oc3cc(N(C)C)nc4ccncc34)cc2)CC1 [I-027] | 4.5 |  |  | 
CN1CCN(c2ccc(Oc3ccnc4ccncc34)cc2)CC1 [I-028] | 11.1 |  |  | 
Fc1cncc2c(Oc3ccc(N4CCn5ccnc5C4)cc3)ccnc12 [I-029] | 16.6 | 57 | 36 | 29
c1cc2nccc(Oc3ccc(N4CCOCC4)cc3)c2cn1 [I-030] | 14 | 60 | 58 | <24
CC(=O)N1CCN(c2ccc(Oc3ccnc4ccncc34)cc2)CC1 [I-031] | 4.7 | 29 | 42 | 28
CN(C)C(=O)C1CN(c2ccc(Oc3ccnc4c(F)cncc34)cc2)C1 [I-032] | 2.1 | <24 | <24 | 27
CC(=O)NC1CN(c2ccc(Oc3ccnc4c(F)cncc34)cc2)C1 [I-033] | 3.9 |  |  | 
COc1cc(Oc2ccc(N3CCN(C(C)=O)CC3)cc2)c2cnccc2n1 [I-034] | 14 |  |  | 
CN1CCC(COc2ccc(Oc3ccnc4c(F)cncc34)cc2)C1=O (centres unmarked) [I-035] | 3.7 | 35 | <24 | <24
CN(C)C(=O)CCOc1ccc(Oc2ccnc3c(F)cncc23)cc1 [I-036] | 4.8 | 32 | <24 | <24
O=C1CCCN1CCOc1ccc(Oc2ccnc3c(F)cncc23)cc1 [I-037] | 27 | 47 | <24 | <24
CC(=O)N(C)CCOc1ccc(Oc2ccnc3c(F)cncc23)cc1 [I-038] | 6.6 |  |  | 
Cc1cncc2c(Oc3ccc(-c4cnn(CC(=O)N(C)C)c4)cc3)ccnc12 [I-041] | 5 |  |  | 
